Experimental data taken from patent US20240123022A1, “A STABLE ANTI-ANGIOGENIC AND ANTI-INFLAMMATORY PHARMACEUTICAL FORMULATION AND PHARMACEUTICAL COMBINATION FOR TREATMENT AND PREVENTION OF PSORIASIS” (priority 2021, published 2024).

What was measured:
HaCaT cells = test: TUNEL assay; format: cell-based, human; details: 48 h
Method: Terminal deoxynucleotidyl transferase (TdT) dUTP Nick-End Labeling (TUNEL) assay has been designed to detect apoptotic cells that undergo extensive DNA degradation during the late stages of apoptosis. […] Cells were treated with test item (IS217 of 100 μg/ml-5000 μg/ml) and positive controls like curcumin (10 μM and 20 μM), anthralin (1 μM) and betullininc acid (10 μg/ml, 20 μg/ml, 50 μg/ml). After about 48 hours of treatment, cells were analysed for the apoptotic effect via TUNEL assay. Absorbance was measured using ELISA reader (Table 1).

IL-23 secretion = test: Inhibition of IL-23 secretion in monocytes THP-1 (LPS and IFN-γ, ELISA); format: cell-based, human
Method: The study was conducted to assess anti-inflammatory potential of test item, IS217 in human monocytic cell line (THP-1) by assessing percentage inhibition of IL-23 in monocytes by using ELISA method.
Curcumin was taken as positive control for in-house validation. For determining inhibitory activity against IL-23 secretion, human monocytic cell line (THP-1) was treated with concentration range of 10-5000 μg/ml with LPS (1 μg/ml) and IFN-γ. LPS (1 μg/ml) and IFN-γ (100 ng/ml) alone were taken as a positive control. After about 24 hours of incubation, IL-23 levels were estimated by ELISA in supernatants corresponding to non-cytotoxic concentrations at 10 to 5000 μg/ml and absorbance of samples was determined by using ELISA reader.

IL-17 secretion = test: IL-17 inhibition in ConA stimulated splenocytes (ELISA); format: cell-based, C57BL/6 mice; details: Mus musculus, Splenocyte, read-out: inhibition of IL-17 w.r.t. control (ConA) levels
Method: The study was conducted to assess anti-inflammatory potential of test item IS217 in murine splenocytes isolated from C57BL/6 mice for assessing percentage inhibition of IL-17 in splenocytes by using ELISA method. […] Curcumin was taken as positive control for in-house validation.
For determining inhibitory activity against IL-17 secretion level, splenocytes cells were treated with the concentration range of 10 to 5000 μg/ml along with Con A stimulation (5 μg/ml), Con A alone treated cells were used as a positive control. After incubating for about 24 hours, IL-17 levels were estimated by ELISA corresponding to non-cytotoxic concentrations at 10 to 2000 μg/ml and absorbance of samples was determined by using ELISA reader.

VEGF secretion [1] = test: cells; details: Homo sapiens, HaCaT, read-out: inhibition of VEGF
[2] = system: TPA induced ear inflammation model in C57BL/6 mice; test: IS217 alone and in combination with methotrexate and betamethasone in TPA induced ear inflammation model; format: in vivo
Method: The experimental procedure, doses and route of administration were same as IMQ model. Test item IS217 was administered subcutaneously either alone or in combination with standard methotrexate (MTX) and betamethasone (BD) to diseased animals.

[3] = system: human keratinocytes (HaCaT) cells; test: Cytotoxicity of methotrexate in combination with IS217, combination index method (MTT); format: cell-based; details: methotrexate alone 0.01-5 μM, 72 h
Method: Assessment of cytotoxicity of methotrexate in combination with IS217 on proliferation of human keratinocytes (HaCaT) cells was performed by using combination index method. HaCaT cell line is maintained by using DMEM, 10% FBS, CO2 incubator and after overnight incubation cells were replenished by using about 1% FBS and then the cells were treated with different concentrations (0.01, 0.1, 0.25, 0.5, 1, 5 μM) of methotrexate alone, IS217 (10, 50, 500, 1000, 2000, 5000 μg/ml) alone, combination of methotrexate (0.01, 0.1, 0.25, 0.5, 1, 5 μM) and IS217 (10, 50, 500, 1000, 2000, 5000 μg/ml) to achieve different combinations.
IS217 was added to the above combinations every 24 hours (i.e., three doses) whereas methotrexate was added only once in 72 hours during the 72 hours of incubation. Then the plates were subjected for MTT assay and percentage inhibition (cytotoxicity) corresponding to each treatment was calculated.

HUVEC cells = test: Tube formation assay in HUVEC cells (VEGF induced); format: cell-based, human; design: Tube formation assay results, Avg: scale not given here
Method: HUVEC cells were used as test system to determine angiogenic effect of IS217 by assessing the inhibitory effects of test item on endothelial cells tube formation. Prior to the tube formation assay, test item of concentration ranging 0.01 μg/ml to 1000 μg/ml were used to treat endothelial cells for its cytotoxicity effect to assess suitable concentration for tube formation assay. […] The cells corresponding to positive control group were treated with bevacizumab of concentration 1000 μg/ml. The degree of angiogenesis progression was assessed based on visual pattern recognition of photomicrographs of HUVEC cells.

VEGF secretion [4] = test: Inhibition of VEGF secretion in HUVEC cells; format: cell-based, human; details: 1 mg/ml
Method: The study was conducted to evaluate anti-angiogenic effect of IS217 in HUVEC cells. […] Bevacizumab (1 mg/mL) was taken as positive control for validation purpose.

## O=C1c2c(O)cccc2Cc2cccc(O)c21 [Anthralin, reference compound]
HaCaT cells; 1 μM
  % increase in TUNEL-Positive cell population w.r.t. control (untreated cells): −87.0%

## C=C(C)[C@@H]1CC[C@]2(C(=O)O)CC[C@]3(C)[C@H](CC[C@@H]4[C@@]5(C)CC[C@H](O)C(C)(C)[C@@H]5CC[C@]43C)[C@@H]12 [BA, betullininc acid, reference compound]
HaCaT cells; 10 μg/ml
  % increase in TUNEL-Positive cell population w.r.t. control (untreated cells): 21.3%
HaCaT cells; 20 μg/ml
  % increase in TUNEL-Positive cell population w.r.t. control (untreated cells): 48.2%
HaCaT cells; 50 μg/ml
  % increase in TUNEL-Positive cell population w.r.t. control (untreated cells): 61.6%

## COc1cc(/C=C/C(=O)CC(=O)/C=C/c2ccc(O)c(OC)c2)ccc1O [Curcumin]
IL-23 secretion; Homo sapiens, THP-1, curcumin 10 μM, read-out: inhibition of IL-23 w.r.t. control LPS and IFN-γ levels
  inhibition at 10 µM: 91.6%
IL-23 secretion; curcumin, second concentration not given
  inhibition of IL-23 w.r.t. control LPS and IFN-γ levels: 90.6%
IL-17 secretion; curcumin 1 μM
  inhibition at 1 µM: 40.5%
IL-17 secretion; curcumin 10 μM
  inhibition at 10 µM: 42.5%
HaCaT cells; 10 μM
  % increase in TUNEL-Positive cell population w.r.t. control (untreated cells): −72.2%
HaCaT cells; 20 μM
  % increase in TUNEL-Positive cell population w.r.t. control (untreated cells): −76.1%
VEGF secretion [1]
  inhibition at 1 µM: 22.8%

## CN(Cc1cnc2nc(N)nc(N)c2n1)c1ccc(C(=O)N[C@@H](CCC(=O)O)C(=O)O)cc1 [methotrexate, reference compound]
[2]; MTX 0.75 mg/kg
  inhibitory activity against TPA induced increase in ear thickness: 24.95%
[2]; MTX 1.5 mg/kg
  inhibitory activity against TPA induced increase in ear thickness: 46.06%
[3]
  50% inhibition of cell proliferation (IC50): not achieved

## CC1=C(/C=C/C(C)=C/C=C/C(C)=C/C(=O)O)C(C)(C)CCC1 [retinoic acid]
VEGF secretion [1]
  inhibition at 1 µM: 22.8%

## Bevacizumab: positive control, commercial formulation Avastin®, anti-VEGF
HUVEC cells; Bevacizumab + VEGF
  Tube formation assay results, Avg: 0.44
HUVEC cells; Bevacizumab, without VEGF
  Tube formation assay results, Avg: 0.33
HUVEC cells; HUVEC, bevacizumab 1000 μg/ml
  inhibition of tube formation as compared to VEGF stimulation control: 91.1%
VEGF secretion [4]
  inhibition of VEGF: 94.51%
